Results published in ChEMBL document CHEMBL4715852, “Advances in the Design of Genuine Human Tyrosinase Inhibitors for Targeting Melanogenesis and Related Pigmentations” (J Med Chem, 2020).
Blank lines part the entries; values can stand above or below the compound they belong to.

Key:
[1] = molecular target: T1, Tyrosinase (Homo sapiens, UniProt P14679); assay: Inhibition of human tyrosinase using L- DOPA as substrate by MBTH based assay
T1 sequence (P14679 whole entry): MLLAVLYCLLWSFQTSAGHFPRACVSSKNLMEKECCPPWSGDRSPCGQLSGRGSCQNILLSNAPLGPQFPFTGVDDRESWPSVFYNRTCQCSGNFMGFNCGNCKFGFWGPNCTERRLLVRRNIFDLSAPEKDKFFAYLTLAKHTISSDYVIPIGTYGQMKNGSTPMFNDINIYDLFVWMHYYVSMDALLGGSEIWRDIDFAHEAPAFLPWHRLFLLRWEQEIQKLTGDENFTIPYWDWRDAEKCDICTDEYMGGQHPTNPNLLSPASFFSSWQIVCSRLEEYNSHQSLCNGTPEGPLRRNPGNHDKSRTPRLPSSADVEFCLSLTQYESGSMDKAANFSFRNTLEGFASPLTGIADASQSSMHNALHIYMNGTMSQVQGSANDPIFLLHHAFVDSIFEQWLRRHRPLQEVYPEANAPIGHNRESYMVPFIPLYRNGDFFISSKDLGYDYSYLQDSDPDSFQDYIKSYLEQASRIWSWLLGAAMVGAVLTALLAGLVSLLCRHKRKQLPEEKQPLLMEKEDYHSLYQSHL

[2] = molecular target: T1, Tyrosinase; assay: Inhibition of tyrosinase in human melanocytes using L-[3,5-3H]-tyrosine as substrate incubated for 1 to 3 days by liquid scintillation counting method; format: cell-based, Melanocyte
[3] = molecular target: T1, Tyrosinase; assay: Inhibition of human HMV-II cell derived tyrosinase using DOPA as substrate incubated for 5 mins by light absorbance method; design: species or system HMV-2 cell line
[4] = molecular target: T1, Tyrosinase; assay: Inhibition of human His-tagged tyrosinase expressed in HEK 293 cells using L-DOPA as substrate by Lineweaver-Burk plot analysis; design: species or system HEK293
[5] = molecular target: T1, Tyrosinase; assay: biochemical
Description: Inhibition of human His-tagged tyrosinase expressed in HEK 293 cells using L-DOPA as substrate by MBTH based assay

[6] = molecular target: T2, Mushroom tyrosinase (Agaricus bisporus, UniProt O42713+Q00024+C7FF04+C7FF05); assay: Inhibition of mushroom tyrosinase using L-tyrosine as substrate by spectrophotometric method
[7] = molecular target: T1, Tyrosinase; assay: Inhibition of tyrosinase in human neonatal foreskin epidermal melanocyte cells using L-tyrosine and L-DOPA as substrate preincubated for 2 days followed by cell lysis and subsequent substrate addition and measured after 3 hr by spectrophotometric method; format: cell-based
[8] = molecular target: T1, Tyrosinase; assay: Inhibition of human tyrosinase expressed in human SKMEL188 cell lysate using L- DOPA as substrate incubated for 8 hrs; format: subcellular, SK-MEL-188
[9] = molecular target: T1, Tyrosinase; assay: Inhibition of human tyrosinase expressed in HEK293 cells using L-tyrosine as substrate and DOPA as cofactor by indirect spectrophotometric method; format: cell-based
[10] = molecular target: T1, Tyrosinase; assay: Inhibition of tyrosinase in human neonatal foreskin epidermal melanocyte cells using L-DOPA as substrate preincubated for 24 hrs followed by cell lysis and subsequent substrate addition and measured after 1 hr by ELISA; format: cell-based
[11] = molecular target: T1, Tyrosinase; assay: Inhibition of human tyrosinase expressed in HEK293 cells; format: cell-based
[12] = molecular target: T2, Mushroom tyrosinase; assay: Inhibition of mushroom tyrosinase
[13] = molecular target: T1, Tyrosinase; assay: Inhibition of human HMV-II cell derived tyrosinase using L-DOPA as substrate by light absorbance method; format: cell-based, HMV-2 cell line
[14] = molecular target: T1, Tyrosinase; assay: Inhibition of human tyrosinase expressed in Escherichia coli
[15] = molecular target: T1, Tyrosinase; assay: Mixed inhibition of recombinant human tyrosinase expressed in baculovirus infected sf9 cells using L-DOPA as substrate by double-reciprocal plot analysis
[16] = molecular target: T2, Mushroom tyrosinase
Description: Competitive inhibition of White button mushroom tyrosinase using L-DOPA as substrate by Lineweaver-Burk plot

[17] = molecular target: T1, Tyrosinase; assay: Inhibition of tyrosinase in neonatal human epidermal melanocytes; design: species or system Melanocyte
[18] = molecular target: T1, Tyrosinase; assay: Inhibition of tyrosinase in human melanocyte cells using L-DOPA as substrate by absorbance method; format: cell-based

- IC50 [1]: 3.2 µM
SMILES: Oc1ccc(-c2csc(Nc3ncccn3)n2)c(O)c1

- IC50 [3]: 22 µM
SMILES: Oc1ccc2cc[nH]c2c1

- Ki [4]: 24 µM
- IC50 [5]: 131 µM
- IC50 [6]: 0.3 µM
SMILES: CC(c1ccccc1)c1ccc(O)cc1O (configuration not stated)

- IC50 [9]: 16 µM
SMILES: O=c1cc(-c2ccc(O)c(O)c2)oc2cc(OS(=O)(=O)O)cc(O)c12

- IC50 [10]: 85 µM
SMILES: COc1cc(/C=C\C(=O)NCCCCNC(=O)/C=C/c2ccc(O)c(OC)c2)ccc1O

- IC50 [11]: 10 µM
SMILES: O=C(/C=C/c1ccc(O)cc1)OC1=C(O)C(=O)O[C@@H]1[C@H](O)CO

- IC50 [11]: 40 µM
SMILES: O=C(/C=C/c1ccc(O)cc1)OC1=C(O)[C@@H]([C@H](O)CO)OC1=O

- IC50 [12]: 0.24 µM
SMILES: COc1ccc(CCCc2ccc(O)cc2O)c(OC)c1C

- IC50 [1]: 3.2 µM
SMILES: CC(=O)Nc1nc(-c2ccc(O)cc2O)cs1

- IC50 [1]: 2.5 µM
SMILES: O=C(Nc1nc(-c2ccc(O)cc2O)cs1)c1ccccc1

- IC50 [10]: 32 µM
SMILES: O=C(CCc1ccc(O)c(O)c1)c1c(O)cc(O)cc1O

- IC50 [1]: 51 µM
SMILES: Nc1nc(-c2ccc(O)cc2O)cs1

- IC50 [1]: 2.6 µM
SMILES: O=C(O)c1ccc(Nc2nc(-c3ccc(O)cc3O)cs2)cc1

- IC50 [17]: 2 µM
- IC50 [11]: 2 µM
SMILES: O=C(O)/C=C/c1ccc(O)cc1 [COUMARIC ACID]

- IC50 [18]: 5 µM
SMILES: COc1cc(/C=C/C(=O)CC(=O)/C=C/c2ccc(O)c(OC)c2)ccc1O [CURCUMIN]

- IC50 [17]: 50 µM
SMILES: COc1cc(/C=C/C(=O)NCCc2ccc(O)c(O)c2)ccc1O [N-TRANS-FERULOYLDOPAMINE]

- IC50 [5]: > 3000 µM
SMILES: Oc1cccc(O)c1 [RESORCINOL]

- IC50 [11]: 9 µM
SMILES: Oc1ccc(/C=C/c2cc(O)cc(O)c2)cc1 [RESVERATROL]

The next lines start with the compound.

SMILES: CCSCc1cc(=O)c(O)co1
- Ki [1]: 19 µM

SMILES: CCCSCc1cc(=O)c(O)co1
- Ki [1]: 27 µM

SMILES: CCCCCSCc1cc(=O)c(O)co1
- Ki [1]: 46 µM

SMILES: CC(C)(C)c1ccc(O)cc1
- IC50 [2]: 10 µM

SMILES: C=C1OC(=O)/C(=C\CCCCCCCCCCCCC)[C@H]1O
- IC50 [7]: 1 µM

SMILES: CC(C)C(=O)Nc1nc(-c2ccc(O)cc2O)cs1
- Ki [4]: 0.25 µM
- IC50 [5]: 1.1 µM

SMILES: N[C@H](Cc1ccccc1)C(=O)O[C@H]1CC[C@H](c2ccc(O)cc2O)CC1
- IC50 [8]: 2 µM

SMILES: CC(C)SCc1cc(=O)c(O)co1
- Ki [1]: 50 µM

SMILES: CSCc1cc(=O)c(O)co1
- Ki [1]: 46 µM

SMILES: O=C(Nc1nc(-c2ccc(O)cc2O)cs1)C1CCCCC1
- IC50 [1]: 4.6 µM

SMILES: CC(C)(C)C(=O)Nc1nc(-c2ccc(O)cc2O)cs1
- IC50 [1]: 1.4 µM

SMILES: CCCCn1cc(O)c(=O)cc1C
- Ki [1]: 100 µM

SMILES: O=C(Nc1nc(-c2ccc(O)cc2O)cs1)c1ccc(CO)cc1
- IC50 [1]: 1.6 µM

SMILES: COC1=CC(=C/C=C/C=C2C=C(OC)C(=O)C(OC)=C2)C=C(OC)C1=O
- IC50 [13]: 2.5 µM

SMILES: CCCn1cc(O)c(=O)cc1C
- Ki [1]: 75 µM

SMILES: O=c1oc2ccccc2cc1O [3-HYDROXYCOUMARIN]
- Ki [14]: 3.4 µM

SMILES: O=C(O)c1ccccc1 [BENZOIC ACID]
- Ki [15]: 520 µM
- Ki [16]: 4.6 µM

SMILES: CCCCCCc1ccc(O)cc1O [HEXYLRESORCINOL]
- Ki [4]: 39 µM
- IC50 [5]: 94 µM
- IC50 [6]: 1.2 µM

SMILES: O=c1cc(-c2ccc(O)c(O)c2)oc2cc(O)cc(O)c12 [LUTEOLIN]
- IC50 [9]: 60 µM

SMILES: CCCCc1ccc(O)cc1O [RUCINOL]
- IC50 [12]: 0.6 µM
- Ki [4]: 9.1 µM

SMILES: CCCCCCCCCCCCC/C=C1\C(=O)O[C@@](C)(OC)[C@@H]1O [SUBAMOLIDE A]
- IC50 [7]: 1 µM
